Experimental data: patent publication US20150266920A1, “MACROCYCLIC KETOAMIDE IMMUNOPROTEASOME INHIBITORS” (HOFF-MANN-LA ROCHE INC., priority 2012, published 2015)

Legend:
β2c/2i = assay: Cell-Based Proteasome Activity/Selectivity Assay, Ramos cells, substrate (KQL)2Rh110; settings: β2c/2i substrate (KQL)2Rh110
From the text: (§1) Cell-Based Proteasome Activity/Selectivity Assay
(§2) The Cell-Based Proteasome subunit activity/selectivity assay was a panel of 5 fluorogenic assays that independently measured the activity of β5c or β 5i (chymotrypsin-like activity), β2c/2i (trypsin-like), and β 1c or β 1i (caspase-like) protease activity associated with the proteasome complex in cultured cells. Specifically, the following substrates were used for respective subunit activities: β 1i: (PAL)2Rh110, β 1c: (LLE)2 Rh110, β2c/2i: (KQL)2Rh110, β 5c: (WLA)2Rh110, β 5i: (ANW)2Rh110. The following procedure was followed:
(§3) Cell preparation: Plated 25 μl of Ramos cells (2×10^6/ml in DPBS) into half area plate (PerkinElmer Cat 6005569) to final 5×10^4 cells/well. Added 0.5 μl of 100×4-fold serial diluted test compounds or DMSO to each well. Highest concentration of compound tested was 20 thus compound serial dilution started from […]. Incubated for 30 minutes at 37° C. Then equilibrated at room temperature for 15 minutes. Added 25 μl of 2× reaction mix consisting of 0.025% digitonin, 20 μM of each substrates and 0.5M sucrose in DPBS. Shaked for one minute @ 700 rpm. Incubated for […] at room temperature. Then read the plates with an Envision multilabel plate reader (PerkinElmer) with 500 nm excitation/519 nm emission.

β 5i = biological target: T1, β 5i (Homo sapiens, UniProt P20618+P28062); assay: Cell-Based Proteasome Activity/Selectivity Assay, Ramos cells, substrate (ANW)2Rh110; settings: β5i substrate (ANW)2Rh110, read-out: Ic50 ramos: ac-(anw)2-r110
T1 construct: protease activity associated with the proteasome complex in cultured cells; endogenous in cells; host or cells: Ramos cells
From the text: as §1, §2, §3

β 5c = biological target: T2, β 5c (Homo sapiens, UniProt P20618+P28074); assay: Cell-Based Proteasome Activity/Selectivity Assay, Ramos cells, substrate (WLA)2Rh110; settings: β5c substrate (WLA)2Rh110
T2 construct: protease activity associated with the proteasome complex in cultured cells; endogenous in cells; host or cells: Ramos cells
From the text: as §1, §2, §3

β 1i = biological target: T3, β 1i (Homo sapiens, UniProt P28065+P40306); assay: Cell-Based Proteasome Activity/Selectivity Assay, Ramos cells, substrate (PAL)2Rh110; settings: β1i substrate (PAL)2Rh110
T3 construct: protease activity associated with the proteasome complex in cultured cells; endogenous in cells; host or cells: Ramos cells
From the text: as §1, §2, §3

β 1c = biological target: T4, β 1c (Homo sapiens, UniProt P28072+Q99436); assay: Cell-Based Proteasome Activity/Selectivity Assay, Ramos cells, substrate (LLE)2 Rh110; settings: β1c substrate (LLE)2 Rh110
T4 construct: protease activity associated with the proteasome complex in cultured cells; endogenous in cells; host or cells: Ramos cells
From the text: as §1, §2, §3

IP 10 level = assay: PBMC IP-10 Assay; type: cell-based; settings: Homo sapiens, PBMCs stimulated with CpG Type A, assay not named in the column head
Description: PBMCs were isolated from whole blood as follows: Blood was collected in a sterile environment in heparinized tubes. Blood was diluted with an equal volume PBS/2% FCS and 30 ml of this mixture was added to ACCUSPIN tubes containing 15 ml Histopaque-1077 already centrifuged at 800 g for 30 seconds and warmed up at room temperature. The tubes were then centrifuged at 800 g for 20 minutes at room temperature with no brake. The mononuclear band, just above the polyethylene frit, was removed by Pasteur pipet. These mononuclear cells were washed three times with sterile PBS, counted, and resuspended in RPMI 1640 supplemented with 10% heat inactivated fetal calf serum, 10 mM HEPES, 1 mM sodium pyruvate, penicillin (50 U/ml), streptomycin (50 μg/ml) and glutamine (2 mM) to approximately 1.5×10^6/ml. […] PBMC viability of cells remaining in the well was measured with ATPlite luminescence assay (Perkin-Elmer) per the manufacturer's instructions. Luminescence was measured on the Perkin-Elmer Envision, using the luminescence filter. IP 10 level was measured with CXCL10/IP10 AlphaLISA kit (Perkin-Elmer) per the manufacturer's instructions, except halving all volumes. Fluorescence was measured on the Envision Multilabel plate reader, using the AlphaScreen standard settings.

LMP7 [1] = biological target: T5, LMP7 (Mus musculus, UniProt O09061+P28063); settings: MRL/lpr lupus-prone mice; cited from earlier work
LMP7 [2] = biological target: T5, LMP7; settings: DSS-induced colitis model in mice; cited from earlier work
LMP7 [3] = biological target: T5, LMP7; settings: mouse CAIA and CIA arthritis models; cited from earlier work

| IC50 (β2c/2i) [µM] | IC50 (β 5i) [µM] | IC50 (β 5c) [µM] | IC50 (β 1i) [µM] | IC50 (β 1c) [µM] | EC50 (IP 10 level) [µM] | Compound | disease progression (LMP7 [1]) | plasma cells numbers and levels of anti-dsDNA IgG (LMP7 [1]) | inflammation and tissue destruction (LMP7 [2]) | disease score (LMP7 [3]) |
| --- | --- | --- | --- | --- | --- | --- | --- | --- | --- | --- |
| > 20 | 0.019 | 0.353 | 1.97 | > 20 | 0.347 | C[C@@H]1NC(=O)CCc2cccc(c2)-c2cccc(c2)CC[C@@H](C(=O)N[C@@H](Cc2ccccc2)C(=O)C(=O)NCc2ccccc2)NC1=O [Example 1, (9S,12S)-12-Methyl-11,14-dioxo-10,13-diaza-tricyclo[15.3.1.1^2,6]docosa-1(20),2(22),3,5,17(21),18-hexaene-9-carboxylic acid ((S)-1-benzyl-2-benzylcarbamoyl-2-oxo-ethyl)-amide] |  |  |  |  |
|  |  |  |  |  |  | COc1ccc(C[C@H](NC(=O)[C@H](C)NC(=O)CN2CCOCC2)C(=O)N[C@@H](Cc2ccccc2)C(=O)[C@@]2(C)CO2)cc1 [PR-957] | prevented disease progression | reduced plasma cells numbers and levels of anti-dsDNA IgG | reduced inflammation and tissue destruction | significantly decrease disease score |
